Source: patent US4113766A, “Oxaprostaglandins” (Pfizer Inc., priority 1975, dated 1978)

Key:
early pregnant rat = assay: induction of abortion in early pregnant rats; type: in vivo
From the text: (§1) These tests include, among others, a test for effect on isolated smooth muscle from guinea pig ileum and rat uterus, a test for effect on histamine induced bronchospasm in guinea pig, a test for effects on dog blood pressure, a test for induction of diarrhea in mice, and a test for the induction of abortion in early pregnant rats.
On the basis of the difference seen in the rat uterus and guinea pig ileum tests with 19-oxaprostaglandin E2, one would expect to have a reduction of the unpleasant gastrointestinal side effects which were encountered when natural PGE2 was employed as an abortion inducer (Lancet, 536, 1971).

estrogenized rat uterus = assay: spasmogenic effect on estrogenized rat uterus in vitro; type: tissue-based; details: in words; rat uterus vs guinea pig ileum, Table I
From the text: as §1
^(c) Threshold dose for spasmogenic effect on estrogenized rat uterus

[1] = system: histamine induced bronchospasm; assay: protection by aerosol against histamine induced bronchospasm in guinea pig; type: in vivo; details: in words, from Table I
Experimental: as §1
^(b) Per cent protection by 100 μg/ml aerosol dose for histamine
induced bronchospasm in the guinea pig.

Row | SMILES | effectiveness relative to natural PGE2 in inducing abortion (early pregnant rat) | tissue selectivity (estrogenized rat uterus) | bronchodilator selectivity versus natural PGE2 [1]
1 | COCCC[C@H](O)/C=C/[C@H]1[C@H](O)CC(=O)[C@@H]1C/C=C\CCCC(=O)O [19-oxa PGE2, 9-oxo-11α,15α-dihydroxy-19-oxa-cis-5-trans-13-prostadienoic acid] | as effective as natural PGE2 | advantage of tissue selectivity | 
2 | CCOCCC[C@H](O)/C=C/[C@H]1[C@H](O)CC(=O)[C@@H]1C/C=C\CCCC(=O)O [19-oxa-ω-homo-PGE2, 9-oxo-11α,15α-dihydroxy-19-oxa-cis-5-trans-13-w-homo-prostadienoic acid] |  |  | more selective bronchodilator than natural PGE2
